For series [1], the target named is T1, HDAC8 (Homo sapiens, UniProt Q9BY41).
T1 construct: purchased Sigma Aldrich or Reaction Biology Corporation
T1 sequence (Q9BY41 1-377): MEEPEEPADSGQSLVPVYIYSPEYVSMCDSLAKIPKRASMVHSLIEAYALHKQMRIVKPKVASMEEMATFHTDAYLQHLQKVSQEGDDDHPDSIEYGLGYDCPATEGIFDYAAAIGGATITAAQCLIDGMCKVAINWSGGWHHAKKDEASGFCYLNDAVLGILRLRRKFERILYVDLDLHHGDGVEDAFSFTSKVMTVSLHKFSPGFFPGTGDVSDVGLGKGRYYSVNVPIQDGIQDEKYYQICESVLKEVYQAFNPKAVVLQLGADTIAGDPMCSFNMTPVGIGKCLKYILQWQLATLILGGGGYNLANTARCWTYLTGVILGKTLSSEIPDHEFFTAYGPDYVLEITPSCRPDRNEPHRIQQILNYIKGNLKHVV
Briefly: In vitro enzymatic assay HDAC8 (Fluor de Lys). It is filed as biochemical. The conditions noted are these: average of at least 2 independent experiments in duplicates ± SEM.

Series [2] is described as follows: Cytotoxicity XTT, HEK 293. Type of series: cell-based. The conditions noted are these: human, HEK 293 cells (ATCC CRL-1573), mean ± SD of 3 independent experiments in triplicate, read-out: cytotoxic IC50 HEK 293. As for the experimental part:
HeLa and HEK 293 cells (ATCC CRL-1573) were cultured as described above and seeded into 96-well plates at 400 cells/well. Test and standard compounds were added to plate wells in triplicate (0.05% DMSO in culture medium) in a range of six concentrations. Following 72 h of incubation, […] of an activated XTT solution was added to the cells (1 mg/mL). The absorbance was measured at 450 nm after 2 h incubation at 37 °C. The growth of the compound-treated cells was compared with the growth of vehicle-treated control cells. IC50 values were calculated with GraphPad Prism 6.0.

The nature of series [3]: PAMPA-BBB. Type of series: in vitro ADME. As for the experimental part: The PAMPA experiment was performed according to the PAMPA-BBB method described by Di et al.[46]. Test compounds were dissolved at 20 mM in DMSO and then diluted 200 times using a buffer solution at pH 7.4 (prepared according to the Geigy table, containing 54 mM Na2HPO4 and 13 mM KH2PO4). The resulting solutions, containing the compounds at 100 μM (0.5% DMSO), represented the donor solutions at the initial time. A total of 280 μL of the donor solution were added in each well of a Teflon® 96-well microplate (Millipore MSSACCEPTOR) forming the donor compartments. Each well of a hydrophobic polyvinylidene fluoride (PVDF) 96-well microtitre filter plate (Multiscreen® MAIPN4550, 70% porosity, pore diameter 0.45 μm, cross-sectional area 0.3 cm^2) was impregnated with 4 μL of a polar brain lipids solution (20 mg/mL in dodecane, PBL obtained from Avanti Polar Lipids), placed under a fume hood and subjected to constant shaking at 75 rpm for approximately 10 min to homogeneously lay the artificial membrane. […] Each tested compound was analysed in triplicate. The effective passive permeability value (Pe) was calculated according the two-way flux equations, obtained from the Fick’s law[47]. The calculated effective passive permeability values Pe were considered relevant only if RSD < 15% as quality control was fulfilled. […]

In series [1], `NNC(=O)c1ccc(COc2ccccc2Cl)cc1` [AK-14] registered an IC50 of over 300 µM. For the same compound, the IC50 at 72 h in series [2] amounted to 34.5 ± 4.8 µM. Besides, in series [3] (PAMPA, pH 7.4, 100 μM donor, 18 hours, room temperature, read-out: effective passive permeability Pe (PAMPA-BBB)), the Papp at 18 h, 100 μM is 65 nm/s. Further, the PAMPA-BBB classification result in series [3] (pH 7.4) is “CNS +”.

These data come from publication PMC4941420, “A Rational Approach for the Identification of Non-Hydroxamate HDAC6-Selective Inhibitors” (Scientific Reports, 2016).
